Laboratory results reported in patent US20240182526A1, “COMPOSITIONS AND METHODS FOR MODULTING INFLAMMATORY AND DEGENERATIVE DISORDER” (University of Southern California, priority 2021, published 2024).
Entries after “also recorded” stand apart in the source; their conditions may differ.

Columns and labels:
[1] = test system: pro-inflammatory signaling in osteoarthritic chondrocytes; test: Western blot of pro-inflammatory signaling proteins in osteoarthritic chondrocytes; format: cell-based, human; details: 4 and 24 hours
Method: (§1) For standard western blot, treated and non-treated cells were lysed in RIPA Lysis and Extraction Buffer (Pierce, Rockford, IL) containing protease inhibitors (Pierce) followed by sonication with a 15-second pulse at a power output of 2 using the VirSonic 100 (SP Industries Company, Warminster, PA). Protein concentrations were determined by BCA protein assay (Pierce). Proteins were resolved with SDS-PAGE utilizing 4-15% Mini-PROTEAN TGX Precast Gels and transferred to Trans-Blot Turbo Transfer Packs with a 0.2-μm pore-size nitrocellulose membrane. The SDS-PAGE running buffer, 4-15% Mini-PROTEAN TGX Precast Gels, Trans-Blot Turbo Transfer Packs with a 0.2-μm pore-size nitrocellulose membrane was purchased from Biorad (Hercules, CA). Nitrocellulose membranes were blocked in 5% nonfat milk in 0.05% (v/v) Tween 20 (PBST) (Corning, Manassas, VA). Membranes were then incubated with primary antibodies p-gp130 Y814 (Evseenko lab, AbClonal), p-AKT (cat #4060, Cell Signaling), p-ERK 1/2 (cat #9106, Cell Signaling), p-Y416-SRC (cat #1246F, Novus Biologicals), p-gp130 (cat #1453R, Bioss USA) and p-NFκBp65 (cat #8242, Cell Signaling), and/or YAP1 (cat #4912, Cell Signaling). Histone H3 (cat #9515, Cell Signaling) was used as loading control. […] Quantification of blots was performed using ImageJ 1.44 followed by Prism9 for analysis.

[2] = test system: YAP1; test: Western blot of YAP1 in LIF-treated pig articular chondrocytes; format: cell-based; details: 4 and 24 hours
Method: as §1, with “VA).” for “VA). Membranes were then incubated with primary antibodies p-gp130 Y814 (Evseenko lab, AbClonal), p-AKT (cat #4060, Cell Signaling), p-ERK 1/2 (cat #9106, Cell Signaling), p-Y416-SRC (cat #1246F, Novus Biologicals), p-gp130 (cat #1453R, Bioss USA) and p-NFκBp65 (cat #8242, Cell Signaling), and/or YAP1 (cat #4912, Cell Signaling). Histone H3 (cat #9515, Cell Signaling) was used as loading control.”
Experiments were performed to determine whether R805 is inclined to shift the signaling outputs downstream of gp130 promoting differential regulation similar to genetic ablation of Y814. As a readout, protein levels of phosphorylated SRC, MAPK (ERK 1/2) and NF-κB were measured in response to OSM while STAT3 and YAP1 levels were evaluated in response to LIF.

[3] = test system: bearded dragon (Pogona vitticeps) amputated tail; test: Lizard tail healing model; format: in vivo; details: 14 days post-amputation
Method: Lizard Tail Healing Model. Captive bred and raised bearded dragon lizards (Pogona vitticeps) were maintained at 25.5° C. with 65% humidity on a 12 hr light/12 hr dark schedule with UVB lamp (Zoo Med) treatment during daylight hours. Care and experimental use of lizards was conducted in accordance with Institutional Animal Care and Use Committee (IACUC). Lizard tails were amputated halfway along lengths with scalpels To systemically deplete macrophage populations, lizards received intraperitoneal (IP) injections of L-α-phoshatidylcholine/cholesterol liposomes containing clodronate (0.125 mg/g) as previously described (Londono et al. J Immunol Regen Med. 2020). Control animals were treated with liposomes containing PBS instead of clodronate. Lizards were treated with R805 drug via daily direct injection (1 pmol drug) into amputated tail stumps. Lizard tail samples were collected 14 days following original tail amputation. Collected tail samples were photographed using an Olympus SZX16 stereo microscope. Images were uploaded in ImageJ (NIH, Bethesda MD) and quantified using the measure command. For labeling of proliferating cell populations with 5-ethynyl-2′-deoxyuridine (EdU) (ThermoFisher Scientific), animals received IP injections of EdU (50 mg/kg) four hours prior to sample collection. Samples to be analyzed via histology were fixed overnight in 4% paraformaldehyde, decalcified for 3 weeks in 10% EDTA (pH 7.4), equilibrated to 30% sucrose, embedded in optimal cutting temperature compound (OCT, Tissue-Tek), crypsectioned at 16 μm thickness, mounted on glass slides, and stained with 4′,6-diamidino-2-phenylindole (DAPI). Samples were stained with Masson's trichrome (American Mastertech) according to the manufacturer's instructions or immunostained for CTSK (Abcam antibody ab19027, used at 1:1000). Images were captured with an Olympus CKX41 microscope outfitted with a Keyence BZ-X800 microscope, and the areas of EdU signal were quantified with ImageJ. Statistical analysis was performed using Prism 7 with one or two-way ANOVA with pairwise Tukey's multiple comparison test for data with multiple groups. A p-value of <0.05 was deemed to be statistically significant. All values and graphs are shown as mean±SD.

## Cc1ccc(-c2csc(NC(=O)c3ccccn3)n2)cc1 [Peptide R805]
[1]
  pro-inflammatory signaling in diseased tissue: markedly suppressed; also recorded: prevents pro-inflammatory signaling in diseased tissue
[2]
  YAP1 downstream of LIF: minimal inhibitory effect
[3]
  CTSK+ macrophage recruitment to amputation site: exhibited CTSK+ macrophage populations that extended into new tissue areas distal to amputation planes
  proliferating EdU+ cells: significantly higher numbers of proliferating EdU+ wound epithelium and periosteal cells
[3]; R805 co-treated with clodronate liposomes
  tail tissue regrowth under macrophage depletion: co-treatment with clodronate liposomes inhibited R805-induced tissue regrowth
[3]; daily direct injection into amputated tail stump
  tail tissue regeneration (gross morphology, Masson's trichrome): resulted in tissue regeneration as evidenced by blastema-like structures; also recorded: enhances lizard tail regeneration in a macrophage-dependent manner
